Experimental data taken from US10500139B2, “Formulations and materials with cationic polymers” (UCL BUSINESS LTD, priority 2013, dated 2019).

Assay: CHX and PLS release into storage solution
Assay type: physicochemical
Conditions: in water over a period of 6 weeks
Procedure: CHX and PLS release into sample storage solutions were quantified using UV spectrometry (Mehdawi 2009, Zhao 2011) and HPLC respectively.
Reactive filler composites containing PLS were prepared as 1 mm thick composite discs. The fluid phase contained 70% UDMA, 25% TEG-DMA, 5% HEMA, 300 ppm BHT, DMPT 0.5%, BP 0.5%. 25 wt % of this fluid phase was combined with 75 wt % powder filler. The filler contained polylysine (1 or 10 wt %), chlorhexidine (0 or 10 wt %), MCPM/TCP (CaP=10 or 20 wt %) and the remainder glass particles (Sci Pharm).

Substance: ε-poly-L-lysine [PLS]
- percentage released from 1 mm thick composite discs: over 70%
